Publication PMC12372887, “Mechanism and cellular actions of the potent AMPK inhibitor BAY-3827” (Science Advances, 2025)
“And” between values parts separate entries of the source, which are not always exact repeats. Equal entries are not always repeated.

What was measured:
[1] = system: AMPKα1α2+/+ (control) primary hepatocytes; experiment: RNA-seq transcriptome analysis of primary hepatocytes; assay type: cell-based, mouse
Procedure: Primary hepatocytes were pretreated for 15 min with BAY-3827 5 μM at 37°C in MEM-199 supplemented with penicillin G (100 U/ml), streptomycin ([…]), and 100 nM dexamethasone followed by addition of MK-8722 10 μM treatment. Six hours posttreatment, the cells were washed twice with room-temperature PBS. RNA was isolated using QIAwave RNAeasy kit (catalog no. 74104) with on-column deoxyribonuclease (DNAse) treatment using Qiagen RNase-free DNase set (catalog no. 79256) following the manufacturer’s protocol. Messenger RNA-seq was performed by the Single-Cell Omics platform at the Novo Nordisk Foundation Center for Basic Metabolic Research. Libraries were prepared using the Universal Plus mRNA-seq protocol (Tecan) as recommended by the manufacturer. Libraries were quantified with NuQuant using the CLARIOstar Plate Reader (BMG Labtech), quality checked using a TapeStation instrument (Agilent Technologies), and subjected to 52–base pair paired-end sequencing on a NovaSeq 6000 (Illumina). The sequencing analysis pipeline nf-core ([69]) was used, with alignment and quantification selection of STAR and Salmon, and mouse GRCm38 set as the reference genome. Unique molecular identifier (UMI)-based deduplication was performed using UMI tools, and sorting and index alignments were completed with SAMtools as part of the pipeline. Differential expression analysis was carried out using the R package edgeR ([70]) and a batch-effect removal was performed in limma ([71]) to account for the variability induced by two mice (291 + 295) from which cells with the same treatments had been pooled to obtain the required cell confluence. Venn diagrams were produced using the R package ggvenn ([72]). […] Heatmaps of log2 counts per million normalized counts were produced using R package pheatmap ([73]). GO enrichment analysis was performed using the R package clusterProfiler version 4.6.2 ([74]) setting FDR < 0.05 with reference organism specified as mouse, pAdjustMethod was set to BH, and ontology category set to biological process, with a qvalueCutoff of 0.05. Visualization analyses were conducted in RStudio version 4.2.0 ([75]).

HEK293 cells = experiment: RSK signaling immunoblot in HEK293 cells; assay type: cell-based, human
Procedure: HEK293 cells (Invitrogen, R75007) were seeded at a density of 500,000 cells per well in six-well cell culture plates (Corning Incorporated Costar #3516) in Dulbecco’s modified Eagle medium (DMEM) high-glucose + GlutaMAX Supplement, pyruvate (Thermo Fisher Scientific, catalog no. 31966-021) containing penicillin G (100 U/ml), streptomycin (100 μg/ml), and 10% (v/v) FBS. Once attached, the next day, the media were changed to serum-free and the cells were starved for 16 hours followed by compound treatment with BAY-3827, BI-D1870 (MedChemExpress, #HY-10510) ± 10 μM MK-2206 dihydrochloride (MedChemExpress, #HY-10358) with 30 min incubation at 37°C followed by coincubation with […] (MedChemExpress, #HY-18739) or vehicle for additional 30 min with final assay DMSO concentration of 0.13%. All cell lines used here were tested monthly for mycoplasma and tested negative.
Following compound treatment, the cells were washed with room temperature PBS and lysed on ice with the addition of lysis buffer [50 mM tris-HCl (pH 7.5), 150 mM NaCl, 1 mM EDTA, 1 mM EGTA, 0.27 M sucrose, 1% w/v Triton X-100, 20 mM glycerol-2 phosphate disodium, 50 mM NaF, and 5 mM Na4P2O7.10 H2O] containing proteases and phosphatase inhibitors [0.5 mM phenylmethylsulfonyl fluoride (PMSF), 1 mM benzamidine HCl, leupeptin (1 μg/ml), pepstatin A (1 μg/ml), 1 μM microcystin-LR, 1 mM Na3VO4, and 1 mM DTT]. Lysates were centrifuged at 10,000g, 4°C for 10 min, and protein concentration of the supernatant was determined with the Pierce Bradford Protein Assay Kit (Thermo Fisher Scientific, #23200) and read on the Hidex Plate Reader (software version 0.5.64.0). Samples were prepared in Laemmli sample buffer (tris 200 mM, 8% SDS, EDTA 2 mM, and 40% glycerol) supplemented with 10% DTT and boiled for 5 min at 100°C. Ten micrograms of protein per sample was run on a Criterion tris-glycine polyacrylamide gel (Bio-Rad, #5678095) and transferred to a nitrocellulose membrane. For cell signaling experiments in HEK293 cells, the samples were run on a Criterion TGX stain-free precast gel (Bio-Rad, catalog no. 5678085) with transfer to a polyvinylidene difluoride membrane performed in Bio-Rad Criterion blotter (#1704071) using tris-glycine transfer buffer (Bio-Rad, #1610734) following the manufacturer’s instructions. The membranes were probed at 4°C overnight in a 4% BSA TBS-T solution containing 0.02% sodium azide with the following antibodies where appropriate: Phospho-ACC (Ser^79) (1:1000, Cell Signaling Technology, #3661S), ACC (C83B10) (1:1000, Cell Signaling Technology, #3676S), phospho-Raptor (Ser^792) (1:1000, Cell Signaling Technology, #2083S), Raptor (24C12) (1:1000, Cell Signaling Technology, #2280S), GSK3αβ (1:2000, Sigma-Aldrich, #04-903), phospho-GSK3αβ (Ser^21/9) (D17D2) (1:1000, Cell Signaling Technology, #8566S), ERK1/2 (137F5) (1:1000, Cell Signaling Technology, #4695), phospho-ERK1/2 (Thr^202/Tyr^204) (D13.14.4E) (1:1000, Cell Signaling Technology, #4370), phospho-AMPKα (Thr^172) (40H9) (1:1000, Cell Signaling Technology, #2535S), AMPKα (1:1000, Cell Signaling Technology, #2532S), anti–glyceraldehyde-3-phosphate dehydrogenase antibody (1:5000, Cell Signaling Technology, #G8795), and vinculin (1:1000, Cell Signaling Technology, #13901). Membranes were scanned using the Odyssey Fc LiCor system (exposure time, 30 s) with densitometry analysis performed using LiCor Image Studio Lite normalizing to control loading protein. Figures were made using GraphPad Prism v10.

`CCc1ccccc1C(=O)Nc1n[nH]c2c(C)c(F)c(C3C(C#N)=C(C)N(C)C(C)=C3C#N)cc12` [BAY-3827, N-[5-(3,5-dicyano-1,2,6-trimethyl-4H-pyridin-4-yl)-6-fluoro-7-methyl-1H-indazol-3-yl]-2-ethylbenzamide] was tested. Which “LogFC ADORA2B” value ([1]; 5 μM + MK-8722 versus MK-8722) did it give?
Its value is −1.3062.

And the “LogFC AVPR1A” value ([1]; 5 μM + MK-8722 versus MK-8722)?
The value was −1.708.

And the “LogFC EHHADH” value ([1]; 5 μM + MK-8722 versus MK-8722)?
Its value is −1.5955.

What about the “LogFC HAL” value ([1]; 5 μM + MK-8722 versus MK-8722) of the same compound?
Its value is −1.348.

What about the “LogFC HMGCR” value ([1]; 5 μM + MK-8722 versus MK-8722) of the same compound?
The value was −0.1621.

What about the “LogFC HPGD” value ([1]; 5 μM + MK-8722 versus MK-8722) of the same compound?
The value was −1.745.

And the “LogFC LIPE” value ([1]; 5 μM + MK-8722 versus MK-8722)?
Its value is −0.2816.

What about the “LogFC LPIN2” value ([1]; 5 μM + MK-8722 versus MK-8722) of the same compound?
Its value is −0.5277.

What about the “LogFC PFKFB2” value ([1]; 5 μM + MK-8722 versus MK-8722) of the same compound?
Its value is −0.5421.

What about the “LogFC PLIN5” value ([1]; 5 μM + MK-8722 versus MK-8722) of the same compound?
Its value is −1.3.

And the “LogFC SP1” value ([1]; 5 μM + MK-8722 versus MK-8722)?
The value was −0.4397.

What about the “LogFC TBC1D15” value ([1]; 5 μM + MK-8722 versus MK-8722) of the same compound?
The value was −0.4895.

And the “LogFC TBC1D17” value ([1]; 5 μM + MK-8722 versus MK-8722)?
The value was −0.5598.

What about the “MK-8722–stimulated AMPK-dependent genes down-regulated” value ([1]; 5 μM + MK-8722 versus MK-8722) of the same compound?
The value was ~ 30% and 30.1%.

And the “logFC CALCOCO1 (RSK2 gene)” value ([1]; 5 μM + MK-8722 versus MK-8722)?
The value was -0.7893.

What about the “logFC CENPE (RSK1 gene)” value ([1]; 5 μM + MK-8722 versus MK-8722) of the same compound?
The value was -1.28.

And the “logFC CENPI (RSK1 gene)” value ([1]; 5 μM + MK-8722 versus MK-8722)?
Its value is -0.6534.

What about the “logFC CENPW (RSK1 gene)” value ([1]; 5 μM + MK-8722 versus MK-8722) of the same compound?
Its value is -0.4735.

And the “logFC DSN1 (RSK1 gene)” value ([1]; 5 μM + MK-8722 versus MK-8722)?
The value was -0.789.

And the “logFC FN1 (RSK1 gene)” value ([1]; 5 μM + MK-8722 versus MK-8722)?
The value was -0.2178.

And the “logFC MASTL (RSK1 gene)” value ([1]; 5 μM + MK-8722 versus MK-8722)?
The value was -0.8494.

What about the “logFC NEK2 (RSK1 gene)” value ([1]; 5 μM + MK-8722 versus MK-8722) of the same compound?
Its value is -1.199.

What about the “logFC SPC25 (RSK1 gene)” value ([1]; 5 μM + MK-8722 versus MK-8722) of the same compound?
Its value is -0.6826.

What about the “logFC STAT5B” value ([1]; 5 μM + MK-8722 versus MK-8722) of the same compound?
The value was -0.6006.

What about the “differentially expressed genes that are down-regulated” value ([1]; 5 μM + MK-8722 versus MK-8722, 2511 significant genes) of the same compound?
Its value is 61.2%.

What about the PPARGC1A gene counts ([1]; 5 μM + MK-8722 versus MK-8722 alone) of the same compound?
Its PPARGC1A gene counts is “significantly reduced”.

And the “PMA-stimulated pGSK3αβ (surrogate of RSK activity)” value (HEK293 cells; 10 μM, in the presence of MK-2206 (10 μM))?
The value was “inhibited to the same extent”.

What about the ACC1 phosphorylation (HEK293 cells; serum-starved HEK293, 1 and 10 μM) of the same compound?
The ACC1 phosphorylation was “dose-dependent reduction”.
